Where “and” joins values, the source holds several entries; their conditions need not be identical. Equal entries are not always repeated.
Assays:
Genome polyprotein [1] = biological target: T1, Genome polyprotein (dengue virus type 2, UniProt P29990); type: functional, Thailand/16681/1984
Genome polyprotein [2] = biological target: T1, Genome polyprotein; type: functional, Thailand/16681/1984; remark: listed apart in the source

T1 sequence (P29990 1346-1475 limits assumed): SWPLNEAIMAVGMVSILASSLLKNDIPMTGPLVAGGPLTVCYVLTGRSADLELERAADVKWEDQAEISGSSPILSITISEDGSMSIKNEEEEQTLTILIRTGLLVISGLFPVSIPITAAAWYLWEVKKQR
T1 sequence (P29990 1476-2093 limits assumed): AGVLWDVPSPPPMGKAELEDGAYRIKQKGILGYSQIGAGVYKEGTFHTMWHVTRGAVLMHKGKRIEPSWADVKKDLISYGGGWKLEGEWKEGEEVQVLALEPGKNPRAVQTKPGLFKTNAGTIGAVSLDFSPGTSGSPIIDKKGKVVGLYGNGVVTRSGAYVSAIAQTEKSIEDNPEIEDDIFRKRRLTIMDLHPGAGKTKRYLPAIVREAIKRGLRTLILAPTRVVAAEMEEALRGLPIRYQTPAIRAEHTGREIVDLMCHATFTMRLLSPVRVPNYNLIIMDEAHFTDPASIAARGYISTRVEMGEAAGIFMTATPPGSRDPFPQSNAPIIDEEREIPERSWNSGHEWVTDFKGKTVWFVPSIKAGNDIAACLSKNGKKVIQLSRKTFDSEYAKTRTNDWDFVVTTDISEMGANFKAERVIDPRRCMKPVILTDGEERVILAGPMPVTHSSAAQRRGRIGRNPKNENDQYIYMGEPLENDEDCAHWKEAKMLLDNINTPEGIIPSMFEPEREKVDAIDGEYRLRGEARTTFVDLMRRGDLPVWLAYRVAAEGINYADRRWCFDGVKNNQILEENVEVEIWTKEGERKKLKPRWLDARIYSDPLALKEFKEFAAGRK

Structure (SMILES) | IC50 (Genome polyprotein [1]) | IC50 (Genome polyprotein [2])
Cc1ncc2c(n1)CCC[C@H]2NC(=O)c1cccc2c1CC(=O)N2 | > 99.5 µM | > 100 µM
O=C(O)c1ccc(-c2cc(NC(=O)c3cc(F)cc4[nH]ncc34)cc3c2CNC3)cc1 | 75.4 µM | 54.7 µM and 75 µM
NCCc1csc2cc(C(=O)Nc3cc([C@H]4CCOC4)ccn3)ccc12 | > 99.5 µM | > 100 µM
O=C1Cc2c(cccc2C(=O)N[C@H]2C[C@H](OC(F)F)C2)N1 | > 99.5 µM | > 100 µM
Cc1c(C(=O)Nc2ccc3c(c2)CCS3(=O)=O)cc(C2CC2)n1C | > 99.5 µM | > 100 µM
Cc1c(C(=O)Nc2ccc3c(c2)CCCC(=O)N3C)cc(C2CC2)n1C | > 99.5 µM | > 100 µM
N#Cc1cccc(-c2nc3c(C(=O)Nc4ccc5c(c4)CNC5)cc(F)cc3[nH]2)c1 | 6.2 µM and 4.83 µM | 10.9 µM and 29.7 µM
O=C(Nc1cc2c(c(-c3c[nH]c(=O)c(F)c3)c1)CNC2)c1cc(F)cc2[nH]ncc12 | 68.4 µM | 38.6 µM and 68.6 µM
COC[C@]1(c2nc3c(C(=O)Nc4ccc5c(c4)CNC5)cc(F)cc3[nH]2)CCOC1 | > 99.5 µM | > 100 µM
CC(=O)N1CCCc2cc(NC(=O)c3cc(C4CC4)n(C)c3C)ccc21 | > 99.5 µM | > 100 µM
N#Cc1c[nH]c2ccc(C(=O)Nc3ccc4c(c3)CNC4)cc12 | > 99.5 µM | > 100 µM
CC(C)Cn1cc2c(C(=O)Nc3ccc4c(c3)CNC4)cc(Cl)cc2n1 | > 99.5 µM | > 100 µM
O=C(Nc1ccc2c(c1)CNC2)c1cc(Cl)cc2nn(C3CCOCC3)cc12 | 90.2 µM | > 100 µM
COc1cc(OC)cc([C@H]2CCN(C(=O)Nc3ccc4c(c3)CNC4)C2)c1 | > 99.5 µM | > 100 µM
O=C(NCCCF)[C@H](Nc1ccc2c(c1)CNC2)c1cc(Cl)cc(C2CC2)c1 | > 99.5 µM | > 100 µM
O=C(Nc1ccc2c(c1)CNC2)c1cc(F)cc(-c2ccc3c(=O)[nH]ncc3c2)c1 | 25 µM and 22.8 µM | 36 µM and 33.9 µM
COCn1ncc2c(C(=O)Nc3ccc4c(c3)CNC4)cc(Cl)cc21 | > 99.5 µM | > 100 µM
CO[C@H]1C[C@H](n2ncc3c(C(=O)Nc4ccc5c(c4)CNC5)cc(Cl)cc32)C1 | > 99.5 µM | > 100 µM
O=C1Cc2c(cccc2C(=O)N[C@H]2CCC[C@@H](C(=O)NC3CC3)C2)N1 | > 99.5 µM | > 100 µM
O=C(Nc1ccc2c(c1)CNC2)c1ccc2ncsc2n1 | > 99.5 µM | > 100 µM
O=C(Nc1cc(-c2cccnc2)ccn1)c1cc(C2CC2)on1 | > 99.5 µM | > 100 µM

Structure (SMILES) | IC50 (Genome polyprotein [1]) | IC50 (Genome polyprotein [2])
CC(C)n1cc(C(=O)Nc2cc(-c3cccnc3)ccn2)cn1 | > 99.5 µM | > 100 µM
O=C(Nc1ccc2c(c1)CNC2)c1cc(Cl)cc2nn(C3COC3)cc12 | > 99.5 µM | > 100 µM
O=C1Cc2c(cccc2C(=O)NC[C@H]2C[C@@H](n3cccn3)C2)N1 | > 99.5 µM | > 100 µM
Cc1nc(C2CC2)[nH]c1C(=O)Nc1cc(-c2cccnc2)ccn1 | > 99.5 µM | > 100 µM
CN1C(=O)CC[C@H]1c1nc2c(C(=O)Nc3ccc4c(c3)CNC4)cc(F)cc2[nH]1 | > 99.5 µM | > 100 µM
O=C(Nc1cc(-c2cccnc2)ccn1)c1cn2c(n1)CCC2 | > 99.5 µM | > 100 µM
O=C(NCCOCC1CC1)[C@H](Nc1ccc2c(c1)CNC2)c1cc(Cl)cc(C2CC2)c1 | > 99.5 µM | > 100 µM
CC1(c2nc(C(=O)Nc3cc(-c4cccnc4)ccn3)no2)CC1 | > 99.5 µM | > 100 µM
COC(=O)c1cc(C(=O)Nc2ccc3c(c2)CNC3)cc2[nH]ccc12 | > 99.5 µM | > 100 µM
O=C1Cc2c(cccc2C(=O)N[C@H]2CC[C@H](OC3CCCC3)CC2)N1 | > 99.5 µM | > 100 µM
N#Cc1cc2c(cc1NC(=O)c1cc(F)cc3[nH]ncc13)CNC2 | 32.5 µM and 25.1 µM | 16.3 µM and 32 µM
Cc1nc(C2(NC(=O)c3cccc4c3CC(=O)N4)CCC2)no1 | > 99.5 µM | > 100 µM
Cc1c(C(=O)Nc2cc(-c3cccnc3)ccn2)cc(C#N)n1C | 57.7 µM | 53.3 µM and 62.1 µM
C[C@H]1C[C@H]1c1cc(C(=O)Nc2cc(-c3cccnc3)ccn2)no1 | > 99.5 µM | > 100 µM
O=C1Cc2c(cccc2C(=O)NC2(c3ncccc3F)CC2)N1 | > 99.5 µM | > 100 µM
CC1=C(c2cc(F)cc(C(=O)Nc3ccc4c(c3)CNC4)c2)CCCC1 | > 99.5 µM | > 100 µM
CCOc1cccc(-c2cccc(NC(=O)c3cc(C4CC4)n(C)c3C)n2)c1 | > 99.5 µM | > 100 µM
Cc1[nH]c(-c2ccccc2)cc1C(=O)Nc1cc(-c2cccnc2)ccn1 | > 99.5 µM | > 100 µM
CC(C)NC(=O)[C@H](Nc1ccc2c(c1)CN(C)C2)c1cc(Cl)cc2[nH]ncc12 | > 99.5 µM | 57.6 µM and > 100 µM
Cc1c(C(=O)Nc2cccc(-c3ccc(O)nc3)c2)cc(C2CC2)n1C | > 99.5 µM | > 100 µM
Fc1cc(CNc2ccc3c(c2)CNC3)c2cc[nH]c2c1 | > 99.5 µM | > 100 µM

Structure (SMILES) | IC50 (Genome polyprotein [1]) | IC50 (Genome polyprotein [2])
C=Cc1cc2c(cc1NC(=O)c1cc(F)cc3[nH]ncc13)CNC2 | 52.7 µM | 32.8 µM
O=C(Nc1ccc2c(c1)CNC2)c1ccc2c(C3=CCNCC3)csc2c1 | 52.6 µM and 43.4 µM | > 100 µM
O=C(Nc1ccc2c(c1)CNC2)c1cc(F)cc2[nH]c(-c3ccccc3F)nc12 | 7.91 µM and 4.23 µM | 18.5 µM and 33.8 µM
Cc1nn(C)c(C)c1[C@H]1CCCN1C(=O)Nc1ccc2c(c1)CNC2 | > 99.5 µM | > 100 µM
CC(C)(O)c1cncc(NC(=O)c2cccc3c2CC(=O)N3)c1 | > 99.5 µM | > 100 µM
COC(=O)N1CCc2cc(NC(=O)c3cc(C4CC4)n(C)c3C)ccc21 | > 99.5 µM | > 100 µM
O=C(Nc1ccc2c(c1)CNC2)c1cccc2c1[C@]1(CCN(C(=O)OCc3ccccc3)C1)C(=O)N2 | > 99.5 µM | > 100 µM
CCc1cccc(-c2nc3c(C(=O)Nc4ccc5c(c4)CNC5)cc(F)cc3[nH]2)c1 | 14.5 µM and 7.53 µM | 88.9 µM and > 100 µM
O=C1Cc2c(cccc2C(=O)N[C@H]2C[C@H](c3ccon3)C2)N1 | > 99.5 µM | > 100 µM
O=C(Nc1ccc2c(c1)CNC2)c1cc(F)cc2[nH]c(-c3ccc(F)cc3)nc12 | 4.84 µM and 4.4 µM | 9.17 µM and 43.9 µM
O=C(O)CCCc1cc(NC(=O)c2cc(F)cc3[nH]ncc23)cc2c1CNC2 | > 99.5 µM | 48.7 µM
CC(C)n1ncc2c(C(=O)Nc3ccc4c(c3)CNC4)cc(Cl)cc21 | > 99.5 µM | > 100 µM
O=C1Cc2c(cccc2C(=O)NC2(c3ccc(O)nc3)CC2)N1 | > 99.5 µM | > 100 µM
Cc1cc(=O)[nH]c(-c2cccc(NC(=O)c3cc(C4CC4)n(C)c3C)c2)n1 | > 99.5 µM | > 100 µM
Cc1ccc(NC(=O)c2cc(C3CC3)n(C)c2C)cc1-c1cccnc1 | > 99.5 µM | > 100 µM
O=C(Nc1ccc2c(c1)CNC2)c1cc(Cl)cc2c1cnn2C1CCOCC1 | > 99.5 µM | > 100 µM
O=C(Nc1ccc2c(c1)CNC2)c1cc(F)cc(C2=CCOCC2)c1 | > 49.7 µM | > 100 µM
Cc1c(NC(=O)c2cccc3c2CC(=O)N3)cnn1C1CCOCC1 | > 99.5 µM | > 100 µM
C=CC[C@H]1NCc2cc(N[C@H](C(=O)NCC(F)F)c3cc(Cl)cc(C4CC4)c3)ccc21 | > 99.5 µM | > 100 µM
COc1ccc([C@@H]2C[C@H]2NC(=O)c2cccc3c2CC(=O)N3)cc1 | > 99.5 µM | > 100 µM
COc1cc(-c2cc(NC(=O)c3cc(F)cc4[nH]ncc34)cc3c2CNC3)ccn1 | 42.4 µM and 32.7 µM | 29 µM and 73.2 µM

Structure (SMILES) | IC50 (Genome polyprotein [1]) | IC50 (Genome polyprotein [2])
COCCN1C(=O)CCc2cc(NC(=O)c3cc(C4CC4)n(C)c3C)ccc21 | > 99.5 µM | > 100 µM
O=C(Nc1cc(-c2cccnc2)ccn1)c1cnn2c1CCCC2 | 18 µM and 13.8 µM | 16.5 µM and 19.7 µM
Cc1c(C(=O)Nc2cccc(Cn3ccccc3=O)c2)cc(C2CC2)n1C | > 99.5 µM | > 100 µM
CC(C)(c1nc2c(C(=O)Nc3ccc4c(c3)CNC4)cc(F)cc2[nH]1)S(C)(=O)=O | 33.6 µM and 26.3 µM | 34.3 µM and 51.7 µM
CC(C)n1cc2c(C(=O)Nc3ccc4c(c3)CNC4)cc(Cl)cc2n1 | > 99.5 µM | > 100 µM
COC(=O)c1cc2c(cc1NC(=O)c1cc(F)cc3[nH]ncc13)CNC2 | > 99.5 µM | > 100 µM
Cc1c(C(=O)Nc2cccc(C(=O)NC3CC3)c2)cc(C2CC2)n1C | > 99.5 µM | > 100 µM
NCCc1csc2cc(C(=O)Nc3ccc4c(c3)CNC4)ccc12 | > 99.5 µM | > 100 µM
O=C(Nc1ccc2c(c1)CN[C@H]2C[C@H](O)CO)c1cc(Cl)cc2[nH]ncc12 | > 99.5 µM | 80.2 µM
Cc1c(C(=O)Nc2cc(C#N)cn(C)c2=O)cc(C2CC2)n1C | > 99.5 µM | > 100 µM
Cn1c(=O)[nH]c2cc(C(=O)Nc3ccc4c(c3)CNC4)cc(Br)c21 | > 99.5 µM | 60 µM and 52.9 µM
C[C@H](NC(=O)c1cccc2c1CC(=O)N2)c1cc2cnccc2o1 | > 99.5 µM | > 100 µM
O=C(Nc1cc(-c2cccnc2)ccn1)c1cc(C2CC2)oc1C1CC1 | > 99.5 µM | > 100 µM
CCCn1ncc2c(C(=O)Nc3ccc4c(c3)CNC4)cc(Cl)cc21 | > 99.5 µM | > 100 µM
O=C(Nc1cc2c(c(C3=CCS(=O)(=O)CC3)c1)CNC2)c1cc(F)cc2[nH]ncc12 | 41.1 µM and 29.7 µM | 34.6 µM and 46.6 µM
O=C(Nc1cc2c(c(-c3ccnnc3)c1)CNC2)c1cc(Cl)cc2[nH]ncc12 | > 99.5 µM | 98.4 µM
O=C(Nc1ccc2c(c1)CNC2)c1cc(Cl)cc2c1cnn2C1CCC1 | > 99.5 µM | > 100 µM
O=C(Nc1cc(-c2cccnc2)ccn1)c1sc2c(c1Br)CNC2 | > 99.5 µM | > 100 µM
Cn1ncc(C(=O)Nc2cc(-c3cccnc3)ccn2)c1C1CC1 | > 99.5 µM | > 100 µM
O=C(Nc1cc2c(c(C3=CCOCC3)c1)CNC2)c1cc(F)cc2[nH]ncc12 | 29.7 µM and 19.8 µM | 27.2 µM and 45.2 µM
O=C1Cc2c(cccc2C(=O)NCC2(F)CC3(CCOCC3)C2)N1 | > 99.5 µM | > 100 µM
